Assay results from US20260240810A1, “COMPOSITIONS AND METHODS FOR REDUCING ADVERSE SIDE EFFECTS IN CANCER TREATMENT” (priority 2022, published 2026).

Columns and labels:
hemoglobin = biological target: T1, hemoglobin (Homo sapiens, UniProt P68871); assay: 14C-RRx-001 binding to hemoglobin in blood; details: blood of rats, dogs, monkeys, humans; liquid scintillation counter
T1 construct: blood not pooled from 3 individual male humans; from tissue; host or cells: whole blood of 3 individual male humans
T1 sequence (P68871 2-147 limits assumed): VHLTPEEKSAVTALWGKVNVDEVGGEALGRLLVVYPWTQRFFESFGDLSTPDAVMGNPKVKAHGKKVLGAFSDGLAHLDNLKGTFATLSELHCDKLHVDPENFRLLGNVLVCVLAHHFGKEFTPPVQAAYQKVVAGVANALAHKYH
T1 sequence (P69905 2-142 partner limits assumed): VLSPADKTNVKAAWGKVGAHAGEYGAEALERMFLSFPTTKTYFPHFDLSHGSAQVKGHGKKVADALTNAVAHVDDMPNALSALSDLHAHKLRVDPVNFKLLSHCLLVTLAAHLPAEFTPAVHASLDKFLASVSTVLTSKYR
Procedure: ^14C-RRx-001 (1 μM and 20 μM) was incubated at a temperature of 37° C. for a time period of 30 minutes with blood pooled from 3 male Sprague Dawley rats, 3 male beagle dogs, and 2 male cynomolgus monkeys, and blood not pooled from 3 individual male humans. […] The range of binding to the 3 different human hemoglobin varied from 24% to 34%.

[1] = Repeated-dose toxicity study in dogs; type: in vivo
Procedure: Repeated-dose toxicity studies of RRx-001 (3 times/week up to 4 weeks in duration) were conducted in rats at dose levels of 12 mg/kg, 20.1 mg/kg, and 30 mg/kg per day and in dogs at dose levels of 4 mg/kg, 8 mg/kg, and 12 mg/kg per day (due to clinical signs, the 8 mg/kg and 12 mg/kg doses were reduced to 3 mg/kg and 5 mg/kg on Day 4). The no observed adverse effect level was <12 mg/kg in rats and 5 mg/kg in dogs.

[2] = system: squamous cell carcinoma of the oral cavity or oropharynx; assay: PREVLAR trial: tumor response and cancer recurrence; type: in vivo, human
Description: Referring to FIG. 6, FIG. 6 is a table 600 showing various incidences of outcomes for patients in Arm 4 of the PREVLAR study vs. patients in Arms 1, 2, and 3 of the PREVLAR study. The various outcomes include a complete response (CR), a partial response (PR), a CR or PR, not evaluable (NE), and missing. […] Thus, administration of RRx-001 was correlated to better outcomes.
Referring to FIG. 10, FIG. 10 is a bar graph 1000 showing a percentage of less cancer recurrence in RRx-001 treated patients. Accordingly, a higher percentage is correlated to the better outcome of lower cancer recurrence. […] Patients in Arm 4 had the lowest percentage drop of 30.8% of cancer recurrence.
The treatment phase commenced 2 weeks before the start of CRT and continued until the LDRT. The short-term follow-up stage started the day after LDRT and continued until complete resolution of ulcerative OM (World Health Organization (WHO) grade≤1 or 6 weeks after the LDRT, whichever came first). Long-term follow-up was performed to assess tumor response for 12 months after the LDRT. OM was assessed twice weekly beginning on the first day of CRT and continuing to resolution of ulcerative OM by trained evaluators using a standardized data collection tool.

[3] = cited from earlier work

Q: Which results are given for `O=C(CBr)N1CC([N+](=O)[O-])([N+](=O)[O-])C1` [RRx-001, 2-bromo-1-(3,3-dinitroazetidin-1-yl) ethan-1-one]?
A: partitioning of radioactivity in blood (hemoglobin): highly partition into red blood cells and covalently bind to hemoglobin; no observed adverse effect level ([1]; 3 times/week up to 4 weeks): 5 mg/kg; organ effects ([1]; repeated dose): Effects on lungs were observed; percentage drop of cancer recurrence ([2]; Arm 1): 50%; percentage drop of cancer recurrence ([2]; Arm 2): 53.8%; percentage drop of cancer recurrence ([2]; Arm 3): 76.9%; incidence of either CR or PR ([2]; patients in Arms 1, 2, or 3): 65.7%; incidence of complete response (CR) ([2]; patients that received RRx-001 in Arms 1, 2, or 3): 48.6%; dose-limiting toxicities and drug-drug interactions ([3]; N. Jayabalan et al. 2023): no dose-limiting toxicities and no drug-drug interactions have been observed; safety and tolerability in humans ([3]; studies from multiple independent groups): safe and well-tolerated; tolerability in prior safety assessments in humans ([3]; with and without concurrent radiation therapy, T. Reid et al. 2015): well-tolerated without significant toxicity
